Tested on: P. falciparum 3D7 growth, pLDH absorbance
Test: blood-stage malaria parasite growth potency – strain 3D7, dose response (AID 2305)

Row | SMILES | IC50 [µM]
1 | Cc1cc(NCCCN2CCCC2=O)n2c(nc3ccccc32)c1C#N | 0.86
2 | O=C(Nc1ccc(OC(F)(F)F)cc1)Nc1ccc([N+](=O)[O-])cc1 | 0.88
3 | CC1(C)N=C(N)NC(NOCCCCCCONC2=NC(C)(C)N=C(N)N2)=N1 | 0.03
4 | CC(C)Sc1nncc(-c2cnnc(SC(C)C)n2)n1 | 0.14
5 | O=C(/C=C/c1ccc(Cl)c(Cl)c1)NCCCCCCN1CCN(C(=O)Nc2cccc(Cl)c2)CC1 | 0.98
6 | CC(=O)Nc1cccc(CNc2cc(C)nc(Nc3ccc(C)cc3)n2)c1 | 1.14
7 | Cc1ccc(CNC(=O)[C@H](CCCN)Nc2nc(Nc3ccccc3)ncc2C)cc1 | 1.53
8 | COc1ccc(C(O)CNC(C)CCc2ccccc2)cc1C(F)(F)F (centres undefined) | 0.07
9 | O=C1OC(c2cc3ccccc3n2S(=O)(=O)c2ccccc2)(c2cc3ccccc3n2S(=O)(=O)c2ccccc2)c2ccccc21 | 0.85
10 | CC(C)CNCc1ccc(-c2ccc(CN(C(=O)NCCc3ccccc3)C3CCN(Cc4ccccc4)CC3)cc2)cc1 | 0.7
11 | COc1cc(-c2nc(-c3ccc4c(c3)CCC4=NO)c(-c3ccncc3)[nH]2)ccc1OCCN1CCCCC1 | 0.79
12 | CN(c1ncc(-c2cccc(CNCc3ccccc3O)c2)cn1)C1CCCCC1 | 0.82
13 | COc1cc2ncnc(NCCc3ccccc3Cl)c2cc1OC | 1.12
14 | Clc1ccc2c(NCc3ccccc3)ccnc2c1 | 0.34
15 | OC(CNC1CCCCC1)Cn1c2ccc(I)cc2c2cc(I)ccc21 (centres undefined) | 0.34
16 | CC(C)(C(=O)Nc1ccc(N2CCC3(CCCN(CC4CC4)C3)CC2)c(Cl)c1)c1cccc(C(F)(F)F)c1 | 2
17 | O=C(O[C@@H]1CN[C@H](C#Cc2cc3c(Nc4ccc5c(cnn5Cc5ccccc5)c4)ncnc3s2)C1)N1CCCC1 | 0.42
18 | COc1cccc(-c2cnc(N)c(-c3nc4cc(Cl)c(F)cc4[nH]3)c2)c1 | 0.54
19 | c1ccc(Oc2ccc(Nc3ccnc4cc(-c5csc(CNCCN6CCOCC6)n5)ccc34)cc2)cc1 | 0.71
20 | COc1nc(N)ncc1C(=O)NC1CN2CCC1CC2 (centres undefined) | 0.24
21 | COc1cc(C2C(Oc3ccccc3)C(=O)N2Cc2ccc(F)cc2)cc(OC)c1OC (centres undefined) | 0.96
22 | O=c1cc(NCCCNCc2cc3c(Cl)cc(Cl)cc3[nH]2)[nH]c2ccccc12 | 0.86
23 | COC(=O)C(C)(C)c1ccc(CC(C)NCC(O)c2cccc(C(F)(F)F)c2)cc1 (centres undefined) | 0.84
24 | CCc1ccc(CN2CCC(CN(c3ccc(N4CCOCC4)c(F)c3)S(=O)(=O)c3ccc(C(C)(C)CC)cc3)CC2)cc1 | 0.71
25 | CCOc1ccc(-c2nonc2NC(=O)c2ccc(F)cc2)cc1OCC | 0.33

Row | SMILES | IC50 [µM]
26 | Cc1cc(Cl)c(S(=O)(=O)NC2CCCC2)cc1OCC(=O)NC1CCCCC1 | 0.38
27 | OC(CNCc1ccccc1OCc1ccccc1)c1cc(Br)cs1 (centres undefined) | 0.72
28 | O=C(Nc1cc(F)c(F)c(-c2cccnc2)c1)N1CCc2cc(Cl)c(Cl)cc21 | 0.84
29 | Cn1nc(C(=O)N2CCC(c3[nH]ncc3Cc3ccccc3)CC2)c2ccccc2c1=O | 0.3
30 | CC1(C)N=C(N)N=C(N)N1OCc1nc(N)nc(Nc2ccccc2)n1 | 0.27
31 | COc1cccc(CNC[C@@H](O)[C@H](Cc2ccccc2)NC(=O)c2cc(N3CCCC3=O)c3[nH]cc(C(C)C)c3c2)c1 | 0.53
32 | CC(C)Nc1nc(NC2CCCCC2)nc(N2CCCCCCC2)n1 | 1.09
33 | COc1ccc2[nH]cc(C3CCN(Cc4ccc(NC(=O)c5ccc(-c6ccccc6)cc5)cc4)CC3)c2c1 | 0.77
34 | CCN(CC)CCCC(C)Nc1cc(C=Cc2ccc([N+](=O)[O-])cc2)nc2ccc(OC)cc12 (centres undefined) | 0.57
35 | Cc1cccc(CN2CCCN(Cc3ccc(C(=O)Nc4ccc(Cl)cc4)cc3)CC2)c1 | 0.6
36 | COc1cc2c(cc1S(=O)(=O)c1ccc(NC(=O)c3cccc(C(F)(F)F)c3)cc1)CCN(C)CC2 | 1.38
37 | CN1CCN(CCCN(Cc2csc(-c3ccc(CNCc4ccccc4)cc3)n2)S(=O)(=O)c2ccccc2)CC1 | 0.77
38 | Cc1cc(=O)c2cc(Oc3cccc(OC(F)(F)F)c3)ccc2[nH]1 | 0.86
39 | Nc1cc(C(F)(F)F)ccc1Cl | 0.74
40 | CN(C)c1ccc(-c2ccc(C(=O)NC3CCN(Cc4ccccc4F)CC3)s2)cc1 | 1.4
41 | COc1cc(Cc2cnc(N)nc2N)ccc1OCc1cccc(Oc2ccccc2)c1 | 1.33
42 | Cn1cccc1C(=O)NCC(CCNc1cc(=O)c2ccccc2[nH]1)NCc1cc(Br)cc(Br)c1 (centres undefined) | 0.91
43 | Cc1cccc2[nH]c(-c3cccc(-c4ccc(NC(=O)c5cccnc5)cc4)c3)nc12 | 0.59
44 | NOCCCCOc1cc(Cl)c(Cl)cc1Cl | 0.17
45 | Cc1cccc2[nH]c(-c3ccc(-c4ccc(CN5CCN(CCC#N)CC5)cc4)cc3)nc12 | 0.86
46 | Oc1cccc(/C=N/Nc2ccnc3cc(Cl)ccc23)c1 | 0.73
47 | Fc1ccc(Nc2n[nH]c(CNC3CCN(Cc4ccc(Cl)c(Cl)c4)CC3)n2)cc1 | 1.38
48 | FC(F)(F)c1ccc2nc(-c3ccc(-c4ccc(CNCc5cnn(-c6ccccc6)n5)cc4)cc3)[nH]c2c1 | 0.43
49 | COc1c(C2CCN(CCCCNC(=O)c3ccc(-c4ccc(NC(=O)C(F)(F)F)cc4)cc3)CC2)ccc2c1CCCC2 | 1
